# Test results: patent publication US20240158418A1 (C4 Therapeutics, Inc., priority 2021, published 2024)
# Molecular target: T1, EGFR L858R-T790M (Homo sapiens, UniProt P00533, L858R/T790M)
# T1 construct: NCI-H1975 (harboring EGFR heterozygous L858R-T790M mutations); host or cells: NCI-H1975
# Experiment: EGFR degradation, Total EGFR (L858R-specific) HTRF, NCI-H1975
# Type: cell-based
# Conditions: Table 9B; NCI-H1975 cells, 6 hours, Total EGFR HTRF; read-out: H1975 EGFR DC50
# Excerpt: NCI-H1975 (harboring EGFR heterozygous L858R-T790M mutations) and NCI-H3255 (harboring EGFR heterozygous L858R mutation) were purchased from ATCC and NCI, respectively. NCI-H1975+CS (harboring EGFR heterozygous L858R-T790M-C797S mutations) was generated using CRISPR technology to introduce the additional C797S mutation by Horizon Discovery. A431 (harboring EGFR wildtype) was purchased from ATCC. RPMI 1640 no-phenol red medium and fetal bovine serum (FBS) were purchased from Gibco (Grand Island, NY, USA). Cell culture flasks and 384-well microplates were acquired from VWR (Radnor, PA, USA). Phosphorylated (pY1068) EGFR and Total EGFR (using L858R-specific detection antibody and pan-EGFR antibody for EGFR mutant cell lines and EGFR wild-type cell lines, respectively) HTRF assay kits were purchased from Cisbio (Bedford, MA, USA).
# Degradation of EGFR protein containing L858R mutation or wild-type was determined based on quantification of FRET signal using a Total EGFR (L858R-specific or pan-EGFR detecting) HTRF assay kit. Phospho-EGFR (pEGFR) inhibition was determined based on quantification of FRET signal using a pY1068 EGFR HTRF assay kit. In separate assay plates, test compounds were added to the 384-well plate from a top concentration of 10 μM with 11 points, half log titration in duplicates. For each assay, 12.5 uL of cells suspended in assay media (RPMI 1640 no-phenol red medium+10% FBS) at cell densities indicated for each cell line in Table 8 below were dispensed using a multi-channel pipette to 384-well low volume white HTRF microplates containing a duplicate concentration range of test compounds and DMSO controls. The plates were kept at 37° C. with 5% CO2 for 6 hours and then incubated with either phospho EGFR or Total EGFR HTRF detection antibodies according to the cell line and EGFR mutant being assayed. Cells treated in the absence of the test compound were the negative control. Positive control was set by wells containing all reagents but no cells. FRET signal was acquired on EnVision™ Multilabel Reader (PerkinElmer, Santa Clara, CA, USA). Compound concentration that achieves 50% degradation and inhibition was reported as DC50 and IC50, respectively.
# T1 sequence (P00533 25-1210 T790M/L858R): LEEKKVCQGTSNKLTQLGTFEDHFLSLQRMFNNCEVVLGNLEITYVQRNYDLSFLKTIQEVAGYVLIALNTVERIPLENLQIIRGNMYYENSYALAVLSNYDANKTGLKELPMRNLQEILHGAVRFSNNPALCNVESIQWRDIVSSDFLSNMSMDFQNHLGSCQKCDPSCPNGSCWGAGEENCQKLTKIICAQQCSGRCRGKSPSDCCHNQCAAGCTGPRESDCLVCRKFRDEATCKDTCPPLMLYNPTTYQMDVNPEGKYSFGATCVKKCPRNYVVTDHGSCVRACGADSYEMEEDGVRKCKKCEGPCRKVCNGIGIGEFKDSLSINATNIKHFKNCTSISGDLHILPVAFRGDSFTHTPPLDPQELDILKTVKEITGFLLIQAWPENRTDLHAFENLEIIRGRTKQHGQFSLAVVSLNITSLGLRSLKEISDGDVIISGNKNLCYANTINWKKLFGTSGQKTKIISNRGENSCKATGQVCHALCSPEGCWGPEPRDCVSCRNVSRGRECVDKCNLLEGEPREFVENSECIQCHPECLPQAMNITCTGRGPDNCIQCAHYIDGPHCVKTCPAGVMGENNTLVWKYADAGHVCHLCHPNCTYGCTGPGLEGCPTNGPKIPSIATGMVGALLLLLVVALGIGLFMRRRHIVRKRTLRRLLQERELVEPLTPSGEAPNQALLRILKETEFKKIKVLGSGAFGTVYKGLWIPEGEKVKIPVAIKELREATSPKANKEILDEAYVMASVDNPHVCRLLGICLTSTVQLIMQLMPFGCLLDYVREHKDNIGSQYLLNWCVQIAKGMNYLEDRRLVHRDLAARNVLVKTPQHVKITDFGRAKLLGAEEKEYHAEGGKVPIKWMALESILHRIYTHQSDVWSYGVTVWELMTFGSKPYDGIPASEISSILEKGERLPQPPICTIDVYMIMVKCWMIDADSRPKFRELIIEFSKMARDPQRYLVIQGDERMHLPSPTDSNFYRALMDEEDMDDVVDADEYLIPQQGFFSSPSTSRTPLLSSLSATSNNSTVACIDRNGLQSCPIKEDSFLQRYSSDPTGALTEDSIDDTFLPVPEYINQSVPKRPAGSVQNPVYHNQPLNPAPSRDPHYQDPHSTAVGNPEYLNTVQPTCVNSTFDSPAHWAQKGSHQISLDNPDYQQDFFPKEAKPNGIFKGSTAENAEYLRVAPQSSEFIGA
row,Compound,DC50
1,"Cn1nc(N2CCC(=O)NC2=O)c2ccc(C3CCN(C(=O)C4CC5(C4)CN(c4ccc(-c6cc(F)c7c(c6)C(=O)N(C(C(=O)Nc6nccs6)c6ncn8c6CCC8)C7)cc4)C5)CC3(F)F)cc21 (stereo not drawn) [Compound 155, 2-(6,7-dihydro-5H-pyrrolo[1,2-c]imidazol-1-yl)-2-[6-[4-[6-[4-[3-(2,4-dioxohexahydropyrimidin-1-yl)-1-methyl-indazol-6-yl]-3,3-difluoro-piperidine-1-carbonyl]-2-azaspiro[3.3]heptan-2-yl]phenyl]-4-fluoro-1-oxo-isoindolin-2-yl]-N-thiazol-2-yl-acetamide]",< 0.05 µM
2,"O=C1CC[C@H](Nc2ccc(N3CCC(O)(CC(=O)N4CC5(C4)CN(c4ccc(-c6cc(F)c7cn(C(C(=O)Nc8nccs8)c8ncn9c8CCC9)nc7c6)cn4)C5)CC3)c(F)c2)C(=O)N1 (stereo partly drawn) [Compound 75, 2-(6,7-dihydro-5H-pyrrolo[1,2-c]imidazol-1-yl)-2-[6-[6-[2-[2-[1-[4-[[(3S)-2,6-dioxo-3-piperidyl]amino]-2-fluoro-phenyl]-4-hydroxy-4-piperidyl]acetyl]-2,6-diazaspiro[3.3]heptan-6-yl]-3-pyridyl]-4-fluoro-indazol-2-yl]-N-thiazol-2-yl-acetamide]",< 0.05 µM
3,"Cn1nc(N2CCC(=O)NC2=O)c2cc(F)c(N3CCC(O)(CC(=O)N4CC5(C4)CN(c4ccc(-c6cc(F)c7c(c6)C(=O)N(C(C(=O)Nc6nccs6)c6ncn8c6CCC8)C7)cc4)C5)CC3)cc21 (stereo not drawn) [Compound 127, 2-(6,7-dihydro-5H-pyrrolo[1,2-c]imidazol-1-yl)-2-[6-[4-[2-[2-[1-[3-(2,4-dioxohexahydropyrimidin-1-yl)-5-fluoro-1-methyl-indazol-6-yl]-4-hydroxy-4-piperidyl]acetyl]-2,6-diazaspiro[3.3]heptan-6-yl]phenyl]-4-fluoro-1-oxo-isoindolin-2-yl]-N-thiazol-2-yl-acetamide]",< 0.05 µM
4,"O=C1CCC(Nc2ccc(CC(=O)N3CCC(NC(=O)c4ccc(C#Cc5cc(F)c6c(c5)C(=O)N(C(C(=O)Nc5nccs5)c5ncn7c5CCC7)C6)cn4)CC3)cc2)C(=O)N1 (stereo not drawn) [Compound 93, 5-[2-[2-[1-(6,7-dihydro-5H-pyrrolo[1,2-c]imidazol-1-yl)-2-oxo-2-(thiazol-2-ylamino)ethyl]-7-fluoro-3-oxo-isoindolin-5-yl]ethynyl]-N-[1-[2-[4-[(2,6-dioxo-3-piperidyl)amino]phenyl]acetyl]-4-piperidyl]pyridine-2-carboxamide]",< 0.05 µM

# More lines, now with the values ahead:
row,DC50,Compound
1,< 0.05 µM,"Cn1nc(N2CCC(=O)NC2=O)c2ccc(C3CCN(CC(=O)N4CCC5(C4)CN(c4ccc(-c6cc(F)c7c(c6)C(=O)N(C(C(=O)Nc6nccs6)c6ncn8c6CCC8)C7)cc4)C5)CC3(F)F)cc21 (stereo not drawn) [Compound 113, 2-(6,7-dihydro-5H-pyrrolo[1,2-c]imidazol-1-yl)-2-(6-(4-(6-(2-(4-(3-(2,4-dioxotetrahydropyrimidin-1(2H)-yl)-1-methyl-1H-indazol-6-yl)-3,3-difluoropiperidin-1-yl)acetyl)-2,6-diazaspiro[3.4]octan-2-yl)phenyl)-4-fluoro-1-oxoisoindolin-2-yl)-N-(thiazol-2-yl)acetamide]"
2,0.05 to 0.15 µM,"O=C1CCN(c2ccc(N3CCC(O)(CC(=O)N4CC5(C4)CN(c4ccc(-c6cc(F)c7c(c6)C(=O)N(C(C(=O)Nc6nccs6)c6ncn8c6CCC8)C7)cc4)C5)CC3)c(C(F)(F)F)c2)C(=O)N1 (stereo not drawn) [Compound 168, 2-(6,7-dihydro-5H-pyrrolo[1,2-c]imidazol-1-yl)-2-[6-[4-[2-[2-[1-[4-(2,4-dioxohexahydropyrimidin-1-yl)-2-(trifluoromethyl)phenyl]-4-hydroxy-4-piperidyl]acetyl]-2,6-diazaspiro[3.3]heptan-6-yl]phenyl]-4-fluoro-1-oxo-isoindolin-2-yl]-N-thiazol-2-yl-acetamide]"
